Source: patent publication US10414832B2, “Derivatives of sulfated polysaccharides, method of preparation, modification and use thereof” (Contipro a.s., priority 2015, dated 2019)

Columns and labels:
Solubility in DMSO = assay type: physicochemical; conditions: lyophilized acid form
Protocol: A 1% solution of chondroitin sulfate (500 mg, 1.1 mmol) in distilled water was prepared. The solution was cooled to 5° C. and 1.2 ml of Amberlite IR 120 Na(H^+) catex was added. The reaction mixture was stirred for 24 h at 5° C. The catex was filtered off, the product was frozen and lyophilized. Its solubility in DSMO was tested and found satisfactory.

[1] = purchased from Sigma Aldrich; cited from earlier work
3T3 fibroblasts = experiment: Viability tests of 3T3 fibroblasts (MTT method); assay type: cell-based; conditions: 3T3 cells, 10, 100, 500 and 1000 μg·mL^−1, 0, 24, 48, 72 hours
Protocol: FIG. 3 illustrates the results of the cell viability tests of 3T3 fibroblasts in α,β-unsaturated aldehyde of chondroitin sulfate (Mw=4×10^4 g/mol, DS=20%). The activation vs inhibition curve, expressed in %, with respect to the control in time T=0 h (100%). Evaluation by means of MTT method, six repetitions.
The tested substance, α,β-unsaturated aldehyde of chondroitin sulfate (DS=20%, Mw=40 kDa), was dissolved in a complete 3T3 medium. The solution was filtered via a 0.22 μm filter. The final test concentrations of the tested solution were 10, 100, 500, and 1000 μg·mL^−1. 3T3 cells of the density of 3000 cells per a well were inoculated into 96-well plates. Before the treatment, the cells were cultured for 24 hours in a complete medium. The cell viability was evaluated by spectrophotometry by means of 3-[4,5-dimethylthiazole-2-yl]-2,5-diphenyl tetrazolium bromide (MTT method) in the intervals of 0, 24, 48, 72 hours. The whole experiment was supplemented with a set of non-treated controls and blank samples. The measured optical density data were converted into percentage formulation related to the control in the time T0 hours (the ratio of the optical density of the treated sample with respect to the optical density of the non-treated control T0, multiplied by 100) and the standard error of the mean (SEM) was calculated. The results of the test are graphically presented at FIG. 3.

Substance | solubility in water [1] [µg/mL] | further results
Acid Form of Chondroitin Sulfate [Example 26] |  | solubility in DSMO (Solubility in DMSO): satisfactory
Lambda carrageenan | 10000 | 
sodium salt of dermatan sulfate | 5000 | 
α,β-unsaturated aldehyde of chondroitin sulfate |  | cytotoxicity (cell viability of 3T3 fibroblasts) (3T3 fibroblasts): not cytotoxic
